Consider eleven molecules from patent US8710184B2, “Motilin-like peptide compound having transmucosal absorbability imparted thereto” (Daiichi Sankyo Company, Limited, priority 2009, dated 2014).

A short description of the data set: Pharmacokinetic experiment on pulmonarily administered native motilin and motilin derivative compounds in rats (RIA). In kind it is in vivo, rat. To be noted: pulmonary administration; for Cmax / AUC: male, SD, plasma, inhaled or intranasal, 25 ug/animal; for Cmax / AUC / BA: 25 μg/rat; for AUC: trapezoidal method; for BA: relative to AUC of intravenous native motilin. The protocol: As test animals, 7- to 10-wk old male SD rats (purchased from CHARLES RIVER LABORATORIES JAPAN, INC.) that consisted of 3 rats per a group were subjected to the following experiment. Native motilin or motilin derivative compounds were dissolved in an aqueous solution of 0.1 N acetic acid to prepare a solution at a concentration of 1 mg/mL and 25 μL of the solution was administered into the polyethylene tube through the trachea by means of an intratracheal liquid spraying device (MicroSprayer; product of Penn Century). […] In the measurement, the respective derivatives were used as standard substances to construct calibration curves for determining the plasma levels.
Using these values, bioavailability (BA (%)) was calculated by the following equation: BA(%)=[(AUC/Dose)/(AUC(motilin—iv)/Dose(motilin—iv))]×100 • AUC: AUC (ng·min/mL) after pulmonary administration • Dose: dose (μg/kg) in pulmonary administration • AUC (motilin_iv): AUC (ng·min/mL) after intravenous administration of native motilin • Dose (motilin_iv): dose (μg/kg) in intravenous administration of native motilin.

Starred links: 1 amine or outer side, 2 acyl side, 3 side chain; linkers in the order of their positions; H or OH if unused. Non-standard residues stand in square brackets, D forms with d. Residues, ends and D or L forms follow the SMILES beside them. No end group written: not given here. X1 = CC(C)[C@@H](C(=O)[*:2])N(C[C@@H](N)Cc1ccccc1)[*:1]; β3hPhg = O=C(C[C@@H](N[*:1])c1ccccc1)[*:2]; Sar = CNCC(=O)O

In the case of `CC[C@H](C)[C@H](NC(=O)[C@@H]1CCCN1C(=O)[C@@H](NC[C@@H](N)Cc1ccccc1)C(C)C)C(=O)N[C@@H](Cc1ccccc1)C(=O)N[C@H](C(=O)N[C@@H](Cc1ccc(O)cc1)C(=O)NCC(=O)N[C@@H](CC(=O)O)C(=O)N[C@@H](CC(C)C)C(=O)N[C@@H](CCC(N)=O)C(=O)N[C@@H](CCCNC(=N)N)C(=O)N[C@@H](CCSC)C(=O)N[C@@H](CCC(N)=O)C(=O)N[C@@H](CCC(=O)O)C(=O)N[C@@H](CCCCN)C(=O)N[C@@H](CCC(=O)O)C(=O)N[C@@H](CCCNC(=N)N)C(=O)N1CCC[C@H]1C(=O)N[C@@H](CCCCN)C(=O)N1CCC[C@H]1C(=O)N[C@@H](CCC(N)=O)C(=O)O)[C@@H](C)O` [Compound 13] (H-[X1]PIFTYGDLQRMQEKERPKPQ-OH; N-terminus and C-terminus assumed), the highest level (Cmax) was 18.4 ± 10.4 ng/mL, the AUC is 3.09 ng·h/mL and the BA is 5.6 ± 1.5%.

Turning to FVPIFTYGDLQRLQEKERPKPQ [Compound 3], the highest level (Cmax) was 24.6 ± 5.8 ng/mL, the AUC is 4.7 ng·h/mL and the BA was found to be 9.5 ± 0.9%.

The molecule `CC[C@H](C)[C@H](NC(=O)[C@@H]1CCCN1C(=O)[C@@H](NC[C@@H](N)Cc1ccccc1)C(C)C)C(=O)N[C@@H](Cc1ccccc1)C(=O)N[C@H](C(=O)N[C@@H](Cc1ccc(O)cc1)C(=O)NCC(=O)N[C@@H](CCC(=O)O)C(=O)N[C@@H](CC(C)C)C(=O)N[C@@H](CCC(N)=O)C(=O)N[C@@H](CCCNC(=N)N)C(=O)N[C@@H](CC(C)C)C(=O)N[C@@H](CCC(N)=O)C(=O)N[C@@H](CCC(=O)O)C(=O)N[C@@H](CCCCN)C(=O)N[C@@H](CCC(=O)O)C(=O)N[C@@H](CCCNC(=N)N)C(=O)N[C@@H](CC(N)=O)C(=O)N[C@@H](CCCCN)C(=O)N1CCC[C@H]1C(=O)N[C@@H](CCC(N)=O)C(=O)O)[C@@H](C)O` [Compound 7] (H-[X1]PIFTYGELQRLQEKERNKPQ-OH; N-terminus and C-terminus assumed) had a peak concentration (Cmax) of 17.2 ± 7.18 ng/mL, an AUC of 3.24 ng·h/mL and a BA of 6.4 ± 1.3%.

In turn, `CC[C@H](C)[C@H](NC(=O)[C@@H]1CCCN1C(=O)[C@@H](NC(=O)C[C@@H](N)c1ccccc1)C(C)C)C(=O)N[C@@H](Cc1ccccc1)C(=O)N[C@H](C(=O)N[C@@H](Cc1ccc(O)cc1)C(=O)NCC(=O)N[C@@H](CCC(=O)O)C(=O)N[C@@H](CC(C)C)C(=O)N[C@@H](CCC(N)=O)C(=O)N[C@@H](CCCNC(=N)N)C(=O)N[C@@H](CC(C)C)C(=O)N[C@@H](CCC(N)=O)C(=O)N[C@@H](CCC(=O)O)C(=O)N[C@@H](CCCCN)C(=O)N[C@@H](CCC(=O)O)C(=O)N[C@@H](CCCNC(=N)N)C(=O)N1CCC[C@H]1C(=O)N[C@@H](CCCCN)C(=O)N1CCC[C@H]1C(=O)N[C@@H](CCC(N)=O)C(=O)O)[C@@H](C)O` [Compound 4] (β3hPhg-VPIFTYGELQRLQEKERPKPQ-OH; N-terminus and C-terminus assumed) gave a Cmax of 14.6 ± 8.23 ng/mL, an AUC of 4.69 ng·h/mL and a BA of 11.0 ± 7.2%.

The molecule FVPIFTYGELQRLQEKERPKPQ [Compound 9] showed a Cmax of 8.99 ± 5.99 ng/mL, an exposure (AUC) of 1.93 ng·h/mL and a BA of 5.7 ± 3.1%.

On to `CC[C@H](C)[C@H](NC(=O)[C@@H]1CCCN1C(=O)[C@@H](NC(=O)[C@@H](N)Cc1ccccc1)C(C)C)C(=O)N[C@@H](Cc1ccccc1)C(=O)N[C@H](C(=O)N[C@@H](Cc1ccc(O)cc1)C(=O)NCC(=O)N[C@@H](CCC(=O)O)C(=O)N[C@@H](CC(C)C)C(=O)N[C@@H](CCC(N)=O)C(=O)N[C@@H](CCCNC(=N)N)C(=O)N[C@@H](CCSC)C(=O)N[C@@H](CCC(N)=O)C(=O)N[C@@H](CCC(=O)O)C(=O)N[C@@H](CCCCN)C(=O)N[C@@H](CCC(=O)O)C(=O)N[C@@H](CCCNC(=N)N)C(=O)N[C@@H](CC(N)=O)C(=O)N[C@@H](CCCCN)C(=O)N1CCC[C@H]1C(=O)N[C@@H](CCC(N)=O)C(=O)O)[C@@H](C)O` [Compound 1], for which the Cmax is 9.09 ± 0.53 ng/mL, the area under the curve (AUC) was 1.99 ng·h/mL and the BA was found to be 5.3 ± 0.6%. The molecule also came in with a BA (listed as compound 1) of 5.3%.

Regarding `CC[C@H](C)[C@H](NC(=O)[C@@H]1CCCN1C(=O)[C@@H](NC[C@@H](N)Cc1ccccc1)C(C)C)C(=O)N[C@@H](Cc1ccccc1)C(=O)N[C@H](C(=O)N[C@@H](Cc1ccc(O)cc1)C(=O)NCC(=O)N[C@@H](CC(=O)O)C(=O)N[C@@H](CC(C)C)C(=O)N[C@@H](CCC(N)=O)C(=O)N[C@@H](CCCNC(=N)N)C(=O)N[C@@H](CC(C)C)C(=O)N[C@@H](CCC(N)=O)C(=O)N[C@@H](CCC(=O)O)C(=O)N[C@@H](CCCCN)C(=O)N[C@@H](CCC(=O)O)C(=O)N[C@@H](CCCNC(=N)N)C(=O)N1CCC[C@H]1C(=O)N[C@@H](CCCCN)C(=O)N1CCC[C@H]1C(=O)N[C@@H](CCC(N)=O)C(=O)O)[C@@H](C)O` [Compound 12] (H-[X1]PIFTYGDLQRLQEKERPKPQ-OH; N-terminus and C-terminus assumed), the Cmax worked out at 30.1 ± 15.8 ng/mL, the AUC is 9.42 ng·h/mL and the BA stood at 18.7 ± 10.7%.

Consider `CC[C@H](C)[C@H](NC(=O)[C@@H]1CCCN1C(=O)[C@@H](NC[C@@H](N)Cc1ccccc1)C(C)C)C(=O)N[C@@H](Cc1ccccc1)C(=O)N[C@H](C(=O)N[C@@H](Cc1ccc(O)cc1)C(=O)NCC(=O)N[C@@H](CCC(=O)O)C(=O)N[C@@H](CC(C)C)C(=O)N[C@@H](CCC(N)=O)C(=O)N[C@@H](CCCNC(=N)N)C(=O)N[C@@H](CCSC)C(=O)N[C@@H](CCC(N)=O)C(=O)N[C@@H](CCC(=O)O)C(=O)N[C@@H](CCCCN)C(=O)N[C@@H](CCC(=O)O)C(=O)N[C@@H](CCCNC(=N)N)C(=O)N[C@@H](CC(N)=O)C(=O)N[C@@H](CCCCN)C(=O)N1CCC[C@H]1C(=O)N[C@@H](CCC(N)=O)C(=O)O)[C@@H](C)O` [Compound 6] (H-[X1]PIFTYGELQRMQEKERNKPQ-OH; N-terminus and C-terminus assumed), for which the highest concentration (Cmax) came out at 34.2 ± 20 ng/mL, the AUC is 6.34 ng·h/mL and the BA stood at 11.5 ± 6.1%. This molecule also returned a BA (listed as compound 6) of 11.5%. In addition, the “profile of plasma concentration compared with native motilin” value (FIG. 3) is “high peak levels”.

In turn, `CC[C@H](C)[C@H](NC(=O)[C@@H]1CCCN1C(=O)[C@@H](NC[C@@H](N)Cc1ccccc1)C(C)C)C(=O)N[C@@H](Cc1ccccc1)C(=O)N[C@H](C(=O)N[C@@H](Cc1ccc(O)cc1)C(=O)NCC(=O)N[C@@H](CCC(=O)O)C(=O)N[C@@H](CC(C)C)C(=O)N[C@@H](CCC(N)=O)C(=O)N[C@@H](CCCNC(=N)N)C(=O)N[C@@H](CCSC)C(=O)N[C@@H](CCC(N)=O)C(=O)N[C@@H](CCC(=O)O)C(=O)N[C@@H](CCCCN)C(=O)N[C@@H](CCC(=O)O)C(=O)N[C@@H](CCCNC(=N)N)C(=O)N[C@@H](CC(N)=O)C(=O)N[C@@H](CCCCN)C(=O)NCC(=O)N[C@@H](CCC(N)=O)C(=O)O)[C@@H](C)O` [Comparative compound 2, reference compound] (H-[X1]PIFTYGELQRMQEKERNKGQ-OH; N-terminus and C-terminus assumed) had a Cmax of 9.3 ± 3.09 ng/mL, an AUC of 1.98 ng·h/mL and a BA of 4.1 ± 1.6%. The BA (listed as comparative compound 2) amounted to 4.1%.

Take “FVPIFTYGELQRLQEKERNKGQ [Comparative compound 1, reference compound]”: the highest level (Cmax) was 4.53 ± 2.86 ng/mL, the AUC is 1.05 ng·h/mL and the BA turned out to be 2.8 ± 1.6%. Besides, for the setting “listed as comparative compound 1”, the BA stood at 2.8%.

Take `CC[C@H](C)[C@H](NC(=O)CN(C)C(=O)[C@@H](NC(=O)C[C@@H](N)c1ccccc1)C(C)C)C(=O)N[C@@H](Cc1ccccc1)C(=O)N[C@H](C(=O)N[C@@H](Cc1ccc(O)cc1)C(=O)NCC(=O)N[C@@H](CCC(=O)O)C(=O)N[C@@H](CC(C)C)C(=O)N[C@@H](CCC(N)=O)C(=O)N[C@@H](CCCNC(=N)N)C(=O)N[C@@H](CC(C)C)C(=O)N[C@@H](CCC(N)=O)C(=O)N[C@@H](CCC(=O)O)C(=O)N[C@@H](CCCCN)C(=O)N[C@@H](CCC(=O)O)C(=O)N[C@@H](CCCNC(=N)N)C(=O)N1CCC[C@H]1C(=O)N[C@@H](CCCCN)C(=O)N1CCC[C@H]1C(=O)N[C@@H](CCC(N)=O)C(=O)O)[C@@H](C)O` [Compound 5, Phg(C#CH2) Val Sar Ile Phe Thr Tyr Gly Glu Leu Gln Arg Leu Gln Glu Lys Glu Arg Pro Lys Pro Gln] (β3hPhg-V[Sar]IFTYGELQRLQEKERPKPQ-OH; N-terminus and C-terminus assumed): the peak level (Cmax) was 14.8 ± 7.78 ng/mL, the area under the curve (AUC) is 2.92 ng·h/mL and the BA came out at 5.7 ± 2.9%.
